{"source": "patent US12290535B2", "about": "“Langerin+ cell targeting” (Max-Planck-Gesellschaft zur Förderung der Wissenschaften …, priority 2018, dated 2025)", "key": {"Langerin ECD": {"target": "T1, Langerin ECD (Homo sapiens, UniProt Q9UJ71, V278A)", "T1 construct": "residues 148 to 328; TEV site (C); StreptagII (C); made in house; host or cells: E. coli BL21* (DE3)", "T1 sequence (Q9UJ71 148-328 V278A)": "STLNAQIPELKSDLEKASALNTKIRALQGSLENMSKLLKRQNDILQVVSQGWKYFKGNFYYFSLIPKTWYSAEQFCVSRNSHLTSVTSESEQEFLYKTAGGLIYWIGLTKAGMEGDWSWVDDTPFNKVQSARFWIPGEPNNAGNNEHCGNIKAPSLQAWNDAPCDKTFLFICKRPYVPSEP", "experiment": "19F R2-filtered NMR reporter displacement assay (Ki determination)", "type": "binding", "conditions": "Langerin ECD 50 μM, pH 7.8, 25° C.", "experimental": "Langerin extracellular domain. Expression and purification were conducted as previously published (Wamhoff, E. C. et al. (19)F Nmr-Guided Design of Glycomimetic Langerin Ligands. ACS Chem Biol, 11, 2407-13 (2016)). Briefly, the trimeric Langerin extracellular domain (ECD) was expressed insolubly in E. coli BL21* (DE3) (Invitrogen). Following enzymatic cell lysis, inclusion bodies were harvested and subsequently solubilized. The sample was centrifuged and the Langerin ECD was refolded overnight via rapid dilution. Next, the sample was dialyzed overnight, centrifuged and purified via mannan-agarose affinity chromatography (Sigma Aldrich). For ^19F R2-filtered NMR and lipid-enzyme-linked lectin assay (Lipid-ELLA) experiments, the buffer was exchanged to 25 mM Tris with 150 mM NaCl and 5 mM CaCl2 at pH 7.8 using 7 kDa size-exclusion desalting columns (Thermo Scientific). For STD NMR experiments, Langerin ECD samples were dialyzed five times for at least 8 h against H2O. Subsequently, the H2O was removed via lyophilization and the residue was stored at −80° C. Prior to STD NMR experiments, the Langerin ECD was dissolved in 25 mM Tris-d11 (Eurisotope) with 100% D2O, 150 mM NaCl and 5 mM CaCl2 at pH 7. The concentration of Langerin ECD was determined via UV spectroscopy (A280, 0.1%=2.45). Purity and monodispersity of Langerin ECD samples were analyzed via SDS PAGE and DLS.\nGeneral remarks. ^19F R2-filtered NMR experiments were conducted on a PremiumCompact 600 MHz spectrometer (Agilent). Spectra were processed in MestReNova and data analysis was performed with OriginPro (Mestrelab Research. Mestrenova. 11.0.2. (2016); OriginLab. Originpro. 9.1. (2015)). Experiments with the Langerin ECD were performed at a receptor concentration of 50 μM in 25 mM Tris with 10% D2O, 150 mM NaCl and 5 mM CaCl2 at pH 7.8 and 25° C. Experiments with the DC-SIGN CRD were performed at a receptor concentration of 50 μM in 25 mM HEPES with 10% D2O, 150 mM NaCl and 5 mM CaCl2 at pH 7.0 and 25° C. TFA served as an internal reference at a concentration of 50 μM. Apparent relaxation rates R2,obs for the reporter ligand were determined using the CPMG pulse sequence as previously published (Wamhoff, E. C. et al. (19)F Nmr-Guided Design of Glycomimetic Langerin Ligands. ACS Chem Biol, 11, 2407-13 (2016): Carr, H. Y. & Purcell, E. M. Effects of Diffusion on Free Precession in Nuclear Magnetic Resonance Experiments. Phys Rev, 94, 630-638 (1954); Meiboom, S. & Gill, D. Modified Spin-Echo Method for Measuring Nuclear Relaxation Times. Rev Sci Instrum 29, 688-691 (1958)).\nKi determination. Ki values were determined as previously published for Langerin (Wamhoff, E. C. et al. (19)F NMR-Guided Design of Glycomimetic Langerin Ligands. ACS Chem Biol 11, 2407-13 (2016)). Briefly, titration experiments were conducted at a concentration of 0.1 mM of reporter ligand 24 at five competitor concentrations [I]T. Samples were prepared via serial dilution. For the acids GlcNS, GlcNAc-6-OS and GlcNS-6-OS the pH values were monitored and adjusted to 7.8 if necessary."}, "DC-SIGN CRD": {"target": "T2, DC-SIGN CRD (Homo sapiens, UniProt Q9NNX6)", "T2 construct": "residues 205 to 404; TEV site (C); StreptagII (C); made in house; host or cells: E. coli BL21* (DE3)", "T2 sequence (Q9NNX6 250-404)": "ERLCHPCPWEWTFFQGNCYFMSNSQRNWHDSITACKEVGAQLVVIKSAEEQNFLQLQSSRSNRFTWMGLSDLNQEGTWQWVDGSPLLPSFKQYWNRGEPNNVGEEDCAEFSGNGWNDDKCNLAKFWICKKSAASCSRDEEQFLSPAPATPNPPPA", "experiment": "19F R2-filtered NMR reporter displacement assay transferred to DC-SIGN", "type": "binding", "conditions": "19F R2-filtered NMR, DC-SIGN CRD 50 μM, pH 7.0, 25° C.", "experimental": "Langerin and DC-SIGN carbohydrate recognition domain. Expression and purification were conducted as previously published. Briefly, the monomeric ^15N-labeled Langerin and DC-SIGN carbohydrate recognition domains (CRDs) were expressed insolubly in E. coli BL21* (DE3) (Invitrogen). Following enzymatic cell lysis, inclusion bodies were harvested and subsequently solubilized. The sample was centrifuged and the Langerin and DC-SIGN CRDs were refolded overnight via rapid dilution. Next, the sample was dialyzed overnight, centrifuged and purified via StrepTactin affinity chromatography (Iba). After an additional dialysis step overnight, the sample was centrifuged and the buffer was exchanged to 25 mM HEPES with 150 mM NaCl at pH 7.0 using 7 kDa size-exclusion desalting columns (Thermo Scientific) for ^19F R2-filtered and ^15N HSQC NMR experiments. The concentration of Langerin and DC-SIGN CRDs was determined via UV spectroscopy (A280, 0.1%=3.19 and A280, 0.1%=2.98). Purity and monodispersity of Langerin and DC-SIGN CRD samples were analyzed via SDS PAGE and DLS.\nGeneral remarks. ^19F R2-filtered NMR experiments were conducted on a PremiumCompact 600 MHz spectrometer (Agilent). […] Apparent relaxation rates R2,obs for the reporter ligand were determined using the CPMG pulse sequence as previously published (Wamhoff, E. C. et al. (19)F Nmr-Guided Design of Glycomimetic Langerin Ligands. ACS Chem Biol, 11, 2407-13 (2016): Carr, H. Y. & Purcell, E. M. Effects of Diffusion on Free Precession in Nuclear Magnetic Resonance Experiments. Phys Rev, 94, 630-638 (1954); Meiboom, S. & Gill, D. Modified Spin-Echo Method for Measuring Nuclear Relaxation Times. Rev Sci Instrum 29, 688-691 (1958)).\nAssay development for DC-SIGN. […] Briefly, the KD value and the relaxation rate in bound state R2,b were determined at five concentrations [L]T of reporter ligand 24 in three independent titration experiments. […]\nKi determination. Ki values were determined as previously published for Langerin (Wamhoff, E. C. et al. (19)F NMR-Guided Design of Glycomimetic Langerin Ligands. ACS Chem Biol 11, 2407-13 (2016)). […]"}, "Langerin+ cells": {"test_system": "Langerin+ cells", "experiment": "in vitro cytotoxicity, Annexin-V / 7-AAD staining", "type": "cell-based", "conditions": "50% DMSO for 3 min, positive control", "experimental": "Liposomes consist mainly of phospholipids and cholesterol. […] As a positive control, cells were treated for 3 min with 50% DMSO. Untreated cells were applied as negative controls. Cells were washed and resuspended in 25 μl buffer (10 mM HEPES, 140 mM NaCl and 2.5 mM CaCl2), pH7.4) containing 1:100 diluted Annexin-V-FITC (Adipogen). Cells were incubated for 10 min in the dark at room temperature. After washing, cells were resuspended in 100 μl buffer containing 1 μl 7-AAD solution (Biolegend) and incubated for 5-10 min in the dark at room temperature. Cells were directly measured without any further washing steps by flow cytometry. […] Annexin-V was detected with a 530/30 filter, 7-AAD with a 695/40 filter and Alexa647 with a 670/14 filter (Attune Nxt, life technologies). […] Langerin targeted liposomes were incubated with cells for extended time periods up to 72 h, and cell toxicity was subsequently analyzed (see FIG. 17).\nEarly apoptotic effects were detected with Annexin-V staining that binds translocated phosphatidylserine, whereas late apoptotic cells were stained with 7-AAD a cell impermeable fluorescent intercalator that associates to DNA and undergoes a spectral shift. […] After doublet discrimination, single cells were analyzed for Annexin-V-FITC and 7-AAD staining in a bivariate histogram by dividing the plot in four quadrants. […]"}, "DC-SIGN": {"target": "T3, DC-SIGN (Homo sapiens, UniProt Q9NNX6)", "T3 sequence (Q9NNX6 1-404)": "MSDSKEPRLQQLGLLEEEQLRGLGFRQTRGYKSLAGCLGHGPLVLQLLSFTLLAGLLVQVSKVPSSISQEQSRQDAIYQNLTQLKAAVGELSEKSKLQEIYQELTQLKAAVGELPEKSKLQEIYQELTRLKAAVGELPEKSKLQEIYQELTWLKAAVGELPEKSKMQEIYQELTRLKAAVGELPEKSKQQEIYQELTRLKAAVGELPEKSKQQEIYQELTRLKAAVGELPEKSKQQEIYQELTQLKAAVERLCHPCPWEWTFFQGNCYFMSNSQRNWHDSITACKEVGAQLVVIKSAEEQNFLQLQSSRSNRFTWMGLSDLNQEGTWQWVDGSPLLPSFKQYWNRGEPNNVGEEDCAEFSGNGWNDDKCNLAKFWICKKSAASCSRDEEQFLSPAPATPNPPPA", "conditions": "literature; cited from earlier work"}, "hLangerin+ Raji cells": {"test_system": "hLangerin+ Raji cells", "experiment": "cell-based binding and internalization assay of functionalized GFP", "set-up": "species or system human", "conditions": "4° C., in words", "experimental": "In FIG. 21 (A) the binding and uptake of functionalized GFP at 4° C. and 37° C. was dose-dependently measured by flow cytometry with Raji and Langerin^+ Raji cells. In FIG. 21 (B) GFP and liposomes were incubated for various time points with Langerin^+ Raji cells. Here, FITC-BSA encapsulated liposomes were utilized to compare the FITC fluorescence with the GFP fluorescence.\nFunctionalized GFP was then tested in a cell-based binding and internalization assay. Both GlcNTosyl functionalized GFP and unconjugated GFP were incubated with WT or hLangerin^+ Raji cells at 4° C. and at 37° C. for 1 h or 2 h, respectively (see FIG. 21). Targeted GFP specifically bound to Langerin expressing cells and saturated at concentrations above 1 μg/ml (see FIG. 21 (A)). […] GFP fluorescence was slightly elevated compared to the binding assay and also saturated above 1 μg/ml."}}}
{"compound": "O=C[C@@H](O)[C@@H](O)[C@H](O)[C@H](O)CO", "note": "[Man, mannose]", "values": [{"measurement": "Ki", "setting": "Langerin ECD", "result": "4.5 ± 0.5", "unit": "mM"}, {"measurement": "Ki", "setting": "DC-SIGN CRD", "result": "3 ± 0.3", "unit": "mM"}]}
{"compound": "C[S+](C)[O-]", "note": "[DMSO]", "values": [{"measurement": "dead cells", "setting": "Langerin+ cells", "result": 98, "unit": "%"}]}
{"compound": "OC[C@H]1OC(O)[C@H](O)[C@@H](O)[C@@H]1O", "note": "(stereo partly shown) [Glc]", "values": [{"measurement": "Ki", "setting": "Langerin ECD", "result": "21 ± 4", "unit": "mM"}]}
{"compound": "O=S(=O)(O)N[C@H]1C(O)O[C@H](CO)[C@@H](O)[C@@H]1O", "note": "(stereo partly shown) [GlcNS, glucosamine-2-sulfate]", "values": [{"measurement": "Ki", "setting": "Langerin ECD", "result": "1.4 ± 0.2", "unit": "mM"}]}
{"compound": "CC(=O)N[C@H]1C(O)O[C@H](COS(=O)(=O)O)[C@@H](O)[C@@H]1O", "note": "(stereo partly shown) [GlcNAc-6-OS, N-acetyl glucosamine-6-sulfate]", "values": [{"measurement": "Ki", "setting": "Langerin ECD", "result": "0.6 ± 0.1", "unit": "mM"}]}
{"compound": "CC(=O)N[C@H]1C(O)O[C@H](CO)[C@@H](O[C@@H]2O[C@H](CO)[C@H](O)[C@H](O)[C@H]2O)[C@@H]1O[C@@H]1O[C@@H](C)[C@@H](O)[C@@H](O)[C@@H]1O", "note": "(stereo partly shown) [Le^X]", "values": [{"measurement": "Kd", "setting": "DC-SIGN", "result": "~1", "unit": "mM"}]}
{"compound": "CC(=O)N[C@H]1C(O)O[C@H](CO)[C@@H](O)[C@@H]1O", "note": "(stereo partly shown) [GlcNAc, N-acetyl glucosamine]", "values": [{"measurement": "Ki", "setting": "Langerin ECD", "result": "4.1 ± 0.7", "unit": "mM"}]}
{"compound": "O=S(=O)(O)N[C@H]1C(O)O[C@H](COS(=O)(=O)O)[C@@H](O)[C@@H]1O", "note": "(stereo partly shown) [GlcNS-6-OS, glucosamine-2-sulfate-6-sulfate]", "values": [{"measurement": "Ki", "setting": "Langerin ECD", "result": "0.28 ± 0.06", "unit": "mM"}]}
{"compound": "Unconjugated GFP: Green Fluorescence Protein without ligand, SEQ ID NO: 82", "values": [{"measurement": "fluorescence signal", "setting": "hLangerin+ Raji cells", "result": "did not show increased fluorescence signals"}]}
